From US7414154B2, “Polyamine compounds and compositions for use in conjunction with cancer therapy” (Wisconsin Alumni Research Foundation, priority 2002, dated 2008) come the findings set out here.

In assay [1] the test system is 23SK skin cells. Description: cell cycle distribution by flow cytometry. The class given is cell-based, human. Conditions: 23SK cells. The source says: FIGS. 5A-5D are cell histograms showing the results from flow cytometry analysis of chemoprotective polyamine-treated 23SK skin cells.
In FIG. 5, cell histograms showing the results from flow cytometry analysis of chemoprotective polyamine-treated 23SK skin cells are shown. […] The transient nature of the cell cycle block induced by chemoprotective polyamines is believed to be an important aspect of their efficacy, i.e., their ability to block cell cycle progression in stem cells during the course of chemo- or radiotherapy, and the resumption of normal stem cell division after a given cancer therapy course has been completed.

Assay [2] deals with p21 protein in 23SK human skin cells. In words: p21 induction by western analysis. Type of assay: cell-based. Conditions: 30 hr exposure. As to the method:
FIGS. 3A and 3B illustrate the level of induced p21 protein seen in diploid human fibroblasts after a 30 hr exposure to each of the indicated chemoprotective polyamines. […] In these experiments, the 23SK human skin cells were exposed for 30 hr to an “IC80” dose of each of the indicated chemoprotective polyamines and then lysed. Cell extracts were then prepared in order to measure p21 levels by western analysis (FIG. 3A).
FIG. 3 illustrates that chemoprotective polyamines are able to induce expression of the negative cell cycle regulatory protein, p21, after exposing the human skin cells to the polyamine molecules. […] In these experiments, the 23SK human skin cells were exposed for 30 hr to an “IC80” dose of each of the indicated chemoprotective polyamines and then lysed. Cell extracts were then prepared in order to measure p21 levels by western analysis (FIG. 3A). Although the ability of modified polyamines to induce p21 is known in the literature (Kramer, D. et al., Cancer Res. 59:1278-1286, 1999), it is a novel aspect of this invention that those chemoprotective polyamines with longer aliphatic “arms” were better able to induce expression of p21 as shown in FIG. 4.

Consider `CCNCCCCNCCCCNCCCCNCC=C(CS)CNCCCCNCCCCNCCCCNCC` [PrC-116], for which, in assay [1], the “Cell Cycle Distribution At IC80 Dose (%) G1” value is reported as 66%, the “Cell Cycle Distribution At IC80 Dose (%) G2/M” value is listed as 23% and the “Cell Cycle Distribution At IC80 Dose (%) S” value is recorded as 11%.

For `CCNCCCCNCCCCNCCCCNCCCCNCC=C(CNCCCCNCCCCNCCCCNCCCCNCC)CN(C)C` [PrC-121], in assay [1], the “Cell Cycle Distribution At IC80 Dose (%) G1” value worked out at 76%, the “Cell Cycle Distribution At IC80 Dose (%) G2/M” value was found to be 20% and the “Cell Cycle Distribution At IC80 Dose (%) S” value was found to be 4%.

Regarding `CCNCCCCNCCCCNCCCCNCCCCNCC=C(CS)CNCCCCNCCCCNCCCCNCCCCNCC` [PrC-117], the “p21 fold-induction at IC80 Dose” value in assay [2] is recorded as ~3.0 fold. Further, in assay [1], the “Cell Cycle Distribution At IC80 Dose (%) G1” value was 86%, the “Cell Cycle Distribution At IC80 Dose (%) G2/M” value is on record as 3% and the “Cell Cycle Distribution At IC80 Dose (%) S” value came out at 11%.
